From BindingDB's records for patent WO2022104345 (Genentech, 2022)

What follows are compounds tested against von Hippel-Lindau disease tumor suppressor (Homo sapiens, UniProt P40337) (assay: VHL HEK-293 BRET Assay).
Chain of von Hippel-Lindau disease tumor suppressor (P40337 whole entry, the tested form may be a part): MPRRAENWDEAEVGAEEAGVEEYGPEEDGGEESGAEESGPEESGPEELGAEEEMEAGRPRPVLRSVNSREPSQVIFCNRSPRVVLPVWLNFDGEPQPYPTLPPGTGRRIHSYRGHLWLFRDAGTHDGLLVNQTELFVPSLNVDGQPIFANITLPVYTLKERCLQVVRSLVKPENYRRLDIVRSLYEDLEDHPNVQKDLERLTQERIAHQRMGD
Experimental: The VHL NanoBRET Target Engagement Assay analyzes the apparent affinity of test compounds for VHL in cells by competitive displacement of a VHL NanoBRET tracer reversibly bound to a NanoLuc VHL fusion protein stably expressed in the cells.[0488] Test compounds were transferred to the assay plate (384 Well White Non-Binding Corning Assay Plates (Corning-3574)) using an Echo 555 Liquid Handler (Labcyte) in 2.5 nL increments and, as appropriate, intermediate stock concentrations of compounds, in order to prepare a titration series.50 nL of control compound (10mM; parental unlabeled VHL antagonist; see structure below) and 50 nL of DMSO (negative control) were dispensed into the appropriate control wells. DMSO was backfilled to a final volume of 50 nL as required.50nl per well of 1 mM VHL NanoBRET Tracer in DMSO (NanoBRETTM Tracer-PEG2-590 (see structure below)) was transferred into each well using an Echo 555 (ultimately yielding a final concentration of 1uM). HEK 293 RT VHL-NanoLuc stable cells were cultured in DMEM High Glucose with Pyruvate, 10% fetal bovine serum, 2 mg/mL of Geneticin Selective Antibiotic (50 mg/ml) and 2 mM HEPES (1 M). Cells were seeded in Opti-MEM (Life Technologies-11058-021), 1.7 × 10^5 cells/mL, 40 ^l per well into the assay plate, centrifuged at 500 rpm for 30 seconds and incubated for 2 hours. Max Signal control wells consisted of DMSO only treated wells. Minimum Signal control wells contained of 10 uM parental unlabeled VHL antagonist (control compound see structure below). 3X Complete Substrate plus Inhibitor Solution was prepared in Opti-MEM (consists of a 1:166 dilution of NanoBRET Nano-Glo Substrate plus a 1:500 dilution of Extracellular NanoLuc Inhibitor in Opti-MEM), and 20 ul was dispensed into each well of the 384-well plate and centrifuged at 1000 rpm for 1 minute, then incubated for 2 minutes at room temperature. Background Signal control wells were prepared without tracer for background correction steps.[0489] Plates were read using a PerkinElmer Envision Reader (model 2104-0020) equipped with Luminescence option (Mirror: BRET2 Enh (PE Barcode 659), Emission Filter: Omega 610LP (Barcode 504), 2nd Emission Filter: Umbelliferone 460 (Barcode 207), Measurement height: 6.5 mm, Measurement time: 1s). The raw BRET ratio values were calculated by dividing the acceptor emission value (610 nm) by the donor emission value (460nm) for each sample. To correct for background, the BRET ratio in the absence of tracer (average of no-tracer control samples) was subtracted from the BRET ratio of each sample. Raw BRET units were converted to milliBRET units (mBU) by multiplying each raw BRET value by 1,000. The normalized NanoBRET signal was calculated relative to the Max Signal control wells (DMSO treated control wells) and the Minimum Signal control wells. Percentage inhibition was calculated relative to the Minimum Signal control and Maximum Signal control wells. IC50 values were derived by four parameter curve fitting using the Robust method.
Work on `CNC(=O)[C@@H]1C[C@@H](O)CN1C(=O)[C@H](C(C)C)n1cc(C2CC2)nn1` [WO2022104345, Compound 11] yielded an IC50 of 3 µM. In the case of `CNC(=O)[C@@H]1C[C@@H](O)CN1C(=O)[C@@H](C(C)C)n1cc(C2CC2)nn1` [WO2022104345, Compound 12], the IC50 is reported as over 100 µM. In the case of `CNC(=O)[C@@H]1C[C@@H](OC(C)=O)CN1C(=O)[C@H](n1cc(C2CC2)nn1)C(C)(C)C` [WO2022104345, Compound 13], the IC50 is reported as 62.8 µM. Work on `CNC(=O)[C@@H]1C[C@@H](O)CN1C(=O)[C@H](C(C)C)n1cc(C2(C)CC2)nn1` [WO2022104345, Compound 21] yielded an IC50 of 1.21 µM. `CNC(=O)[C@@H]1C[C@@H](O)CN1C(=O)C(=C(C)C)n1cc(C2CC2)nn1` [WO2022104345, Compound 32] was tested, and the IC50 was 4.75 µM. Work on `CNC(=O)[C@@H]1C[C@@H](O)CN1C(=O)[C@H](C(C)C)n1cc(-c2cncs2)nn1` [WO2022104345, Compound 41] yielded an IC50 of 0.9 µM. `CNC(=O)[C@@H]1C[C@@H](O)CN1C(=O)[C@H](C1CCNCC1)n1cc(C2CC2)nn1` [WO2022104345, Example S7] was tested, and the IC50 was over 100 µM. `CNC(=O)[C@@H]1C[C@@H](O)CN1C(=O)[C@H](C1CCN(C)CC1)n1cc(C2CC2)nn1` [WO2022104345, Example S8] showed an IC50 of over 100 µM.
